This note sets out measurements from paper PMC2566858 (Nucleic Acids Research, 2008).

The target in one assay is rGyr_fl (Thermotoga maritima, UniProt O51934, K106Q/Y851F). Briefly: biochemical.
The target in assay [1] is rGyr_hel (Thermotoga maritima, UniProt O51934, K106Q). In words: biochemical.
Assay [2] concerns the target T1, rGyr_hel (Thermotoga maritima, UniProt O51934).
T1 sequence (O51934 59-541): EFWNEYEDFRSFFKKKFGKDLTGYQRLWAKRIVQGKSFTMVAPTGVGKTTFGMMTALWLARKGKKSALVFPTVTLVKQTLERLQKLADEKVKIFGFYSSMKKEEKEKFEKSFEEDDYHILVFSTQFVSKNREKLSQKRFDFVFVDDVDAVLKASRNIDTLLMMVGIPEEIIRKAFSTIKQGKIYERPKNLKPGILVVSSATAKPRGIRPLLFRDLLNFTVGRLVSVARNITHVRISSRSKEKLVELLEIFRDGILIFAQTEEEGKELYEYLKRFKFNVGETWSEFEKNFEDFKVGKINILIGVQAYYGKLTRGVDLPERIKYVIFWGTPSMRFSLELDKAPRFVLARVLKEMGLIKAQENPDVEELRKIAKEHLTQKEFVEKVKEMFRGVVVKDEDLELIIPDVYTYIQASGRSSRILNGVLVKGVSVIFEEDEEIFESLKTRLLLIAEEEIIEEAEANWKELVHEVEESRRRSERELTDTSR
Briefly: fluorescence equilibrium titration. The class given is binding.

rGyr_hel (Thermotoga maritima, UniProt O51934, K106Q), sequence (O51934 59-541 K106Q): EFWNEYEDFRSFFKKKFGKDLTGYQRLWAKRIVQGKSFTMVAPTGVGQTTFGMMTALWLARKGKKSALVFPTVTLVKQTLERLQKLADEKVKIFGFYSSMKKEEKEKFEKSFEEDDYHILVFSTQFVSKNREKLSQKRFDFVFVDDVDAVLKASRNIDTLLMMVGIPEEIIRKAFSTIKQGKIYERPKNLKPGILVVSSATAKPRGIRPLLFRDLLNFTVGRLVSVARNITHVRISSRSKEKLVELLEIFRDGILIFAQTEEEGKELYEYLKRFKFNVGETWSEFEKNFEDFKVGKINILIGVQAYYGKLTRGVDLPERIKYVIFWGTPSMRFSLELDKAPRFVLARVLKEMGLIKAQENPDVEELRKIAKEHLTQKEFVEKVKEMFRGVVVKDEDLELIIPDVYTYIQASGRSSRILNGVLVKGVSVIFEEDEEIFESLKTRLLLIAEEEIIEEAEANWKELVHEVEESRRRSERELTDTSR
rGyr_fl, sequence (O51934 whole entry K106Q/Y851F): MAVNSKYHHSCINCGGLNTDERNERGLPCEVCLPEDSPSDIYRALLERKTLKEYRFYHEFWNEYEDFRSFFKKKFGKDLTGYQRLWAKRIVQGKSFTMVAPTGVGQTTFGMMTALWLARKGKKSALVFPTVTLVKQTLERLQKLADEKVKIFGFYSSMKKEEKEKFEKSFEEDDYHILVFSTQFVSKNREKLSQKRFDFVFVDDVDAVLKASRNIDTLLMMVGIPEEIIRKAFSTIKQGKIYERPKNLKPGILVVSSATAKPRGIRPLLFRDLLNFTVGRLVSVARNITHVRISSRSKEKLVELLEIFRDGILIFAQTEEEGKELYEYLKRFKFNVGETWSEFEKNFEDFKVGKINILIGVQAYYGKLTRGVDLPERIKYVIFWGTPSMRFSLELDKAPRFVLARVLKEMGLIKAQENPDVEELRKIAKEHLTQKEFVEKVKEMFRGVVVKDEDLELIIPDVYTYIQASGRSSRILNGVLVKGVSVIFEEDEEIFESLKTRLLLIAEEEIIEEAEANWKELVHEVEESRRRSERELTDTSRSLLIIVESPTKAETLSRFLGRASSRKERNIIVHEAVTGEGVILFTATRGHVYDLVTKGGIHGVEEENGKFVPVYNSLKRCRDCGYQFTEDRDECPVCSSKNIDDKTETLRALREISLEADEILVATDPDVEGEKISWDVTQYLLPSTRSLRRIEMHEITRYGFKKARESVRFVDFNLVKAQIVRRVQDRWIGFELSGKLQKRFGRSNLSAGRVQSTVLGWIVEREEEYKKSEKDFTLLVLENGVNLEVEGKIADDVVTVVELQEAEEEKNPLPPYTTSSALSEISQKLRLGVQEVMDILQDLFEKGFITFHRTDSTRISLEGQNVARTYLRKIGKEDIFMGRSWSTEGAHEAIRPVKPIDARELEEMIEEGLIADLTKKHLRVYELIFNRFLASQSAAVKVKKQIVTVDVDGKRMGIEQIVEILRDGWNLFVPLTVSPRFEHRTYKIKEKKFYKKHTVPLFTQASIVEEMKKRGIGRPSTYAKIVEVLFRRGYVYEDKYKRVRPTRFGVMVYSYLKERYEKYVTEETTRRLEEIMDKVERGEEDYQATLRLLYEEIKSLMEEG

Take `Nc1ncnc2c1ncn2[C@@H]1O[C@H](COP(=O)(O)OP(=O)(O)O)[C@@H](O)[C@H]1O` [ADP]: the Kd at rGyr_fl amounted to 36 ± 5 µM; at rGyr_hel [1] it was 150 ± 85 µM.
With `Nc1ncnc2c1ncn2[C@@H]1O[C@H](COP(=O)(O)O)[C@@H](O)[C@H]1O` [AMP], at rGyr_hel [2], the Kd is 1600 ± 231 µM.
In the case of `Nc1ncnc2c1ncn2[C@@H]1O[C@H](COP(=O)(O)OP(=O)(O)OP(=O)(O)O)[C@@H](O)[C@H]1O` [ATP], the Kd on rGyr_fl was found to be 98 ± 12 µM; on rGyr_hel [1], 570 ± 300 µM.
